Experimental data published in publication PMC8658889, “Seriniquinones as Therapeutic Leads for Treatment of BRAF and NRAS Mutant Melanomas” (Molecules, 2021).
Like-named read-outs stand apart in the source and are kept apart here.

Legend:
[1] = system: SK-MEL-147; experiment: Western blotting of apoptosis and autophagy markers; format: cell-based, Human; details: SK-MEL-147, 24 h
Method: (§1) […] (2.5 × 10^5) cells in 1 mL of media were seeded in cell culture dishes and, 24 h later, treated with SQ1 (0.3 µM and 0.6 µM for SK-MEL-28 and 0.9 µM and 1.8 µM for SK-MEL-147) or SQ2 (0.05 µM and 0.1 µM for SK-MEL-28 and 0.6 µM and 1.2 µM for SK-MEL-147) for 24 h. Doxorubicin (DOX; 1.4 µM for SK-MEL-28 and 0.8 µM for SK-MEL-147) was used as positive control and 0.5% DMSO as negative control.
(§2) Treated cells (Section 4.6) had their proteins extracted with the following solution: 10 mM ethylenediaminetetraacetic acid (EDTA), 10% triton, 2 mM phenylmethanesulfonyl fluoride (PMSF), 10 mM Tris base, 10 mM sodium pyrophosphate, 100 mM sodium fluoride, 2.5 mM sodium orthovanadate, and deionized water. The resulting extract was quantified for protein concentration and 30 µg of protein were subjected to SDS-PAGE and to Western blot analysis with the indicated antibodies: cleaved PARP-1 (#5625), PARP1 (#9542), cleaved caspase-3 (#9604), caspase-3 (#9662), SQSTM1/p62 (#5114), LC3B (#2775), and α-tubulin (#2144) from Cell Signaling Technology (Danvers, MA, USA). Images of membranes were made using Pierce ECL Western Blotting Substrate (Thermo Fisher Scientific, San Jose, CA, USA) and G:BOX Chemi XRQ (Syngene, Cambridge, UK). Band intensities were quantified using UN-SCAN-IT gel 6.1 software (Silk Scientific; Orem, UT, USA).

[2] = system: SK-MEL-28; experiment: as above; format: cell-based, Human; details: SK-MEL-28, 24 h
Method: as §1, §2

[3] = system: SK-MEL-147; experiment: Trypan blue exclusion test (cell viability); format: cell-based, Human; details: for number of viable cells: SK-MEL-147, 24-h treatment, 1.0, 2.5 or 5.0 µM
Method: (§3) Fifty thousand (5 × 10^4) cells in 1 mL of media were seeded in cell culture dishes and, 24 h later, treated with SQ1 or SQ2 (1.0, 2.5, and 5.0 µM), vehicle (DMSO) and doxorubicin (DOX, positive control) for 24 h. Cells were detached, stained with Trypan Blue solution 0.4% (1:10, v/v; Sigma-Aldrich, St. Louis, MO, USA) and counted in a Neubauer chamber under optical microscopy to determine concentrations of viable and non-viable cells.

[4] = system: SK-MEL-28; experiment: Trypan blue exclusion test (cell viability); format: cell-based, Human; details: SK-MEL-28, 24-h treatment, 1.0, 2.5 or 5.0 µM
Method: as §3

[5] = system: DCD gene; experiment: DCD gene expression by qPCR in SK-MEL-147; format: cell-based, Human; details: SK-MEL-147, 24 h
Method: as §1
(§4) Treated cells (Section 4.6) had their total RNA extracted and purified using TRIzol reagent (Thermo Fisher Scientific, San Jose, CA, USA), in accordance with the manufacturer’s recommendations. For analysis of DCD expression, purified total RNA was quantified using an Eon Microplate Spectrophotometer (BioTek Instruments, Winooski, VT, USA). Quantitative PCR (qPCR) was conducted on a Rotor Gene 6000 real-time cycler (Corbett Life Science, Sydney, NSW, Australia) using GoTaq 1-Step RT-qPCR System (Promega, Madison, WI, EUA). The cycle conditions were as follows: 45 °C for 10 min, 95 °C for 15 min and 40 cycles of 95 °C for 15 s; 60 °C for 60 s, followed by the melt. Relative expression was calculated using the comparative CT method Delta-Delta-Ct (DDCt). The primer sequences and concentrations utilized (DCD and RPLPO) can be consulted in Table S3.

[6] = system: DCD gene; experiment: DCD gene expression by qPCR in SK-MEL-28; format: cell-based, Human; details: SK-MEL-28, 24 h
Method: as §1, §4

[7] = parameters: method as in PMID 30783501; details: organic and aqueous media, cited from earlier work
[8] = system: SK-MEL-147; experiment: Clonogenic assay; format: cell-based, Human; details: for decrease of cell proliferation expressed by colony area: SK-MEL-147, 24 h treatment, 6 days in drug-free medium
Method: as §1
After the cells were submitted to the treatment scheme (Section 4.6), adherent cells were collected, plated at 1 × 10^3 cell/plate on 35-mm plates and maintained in culture for 6 days in treatment-free medium. The medium was replaced every 2 days. Cells were then fixed and stained with a solution of 20% MeOH (Synth, Diadema, São Paulo, Brazil) and 0.5 g crystal violet (Sigma-Aldrich, St. Louis, MO, USA). Images were acquired using G:BOX Chemi XRQ (Syngene, Cambridge, UK) and quantified using the ImageJ program (ColonyArea; US National Institutes of Health, Bethesda, MD, USA).

Row | Structure (SMILES) | apoptotic markers (cleaved PARP-1, cleaved caspase-3) [1] | apoptotic markers (cleaved PARP-1, cleaved caspase-3) [2] | autophagic flux (p62) [2] | number of viable cells [3] | number of viable cells [4] | DCD expression relative to control ([5]; 1.8 µM) | DCD expression increase relative to control ([6]; 0.3 µM) | DCD expression increase relative to control ([6]; 0.6 µM) | solubility [7] | solubility ([7]; listed as seriniquinone) | reduction of the colony levels ([8]; SK-MEL-147, 24 h treatment at half IC50 and IC50, 6 days in drug-free medium) | decrease of cell proliferation expressed by colony area [8] | proportion of non-viable cells ([3]; SK-MEL-147, 24 h, 2.5 and 5.0 µM) | DCD overexpression relative to control ([5]; 1.2 µM) | DCD expression up-regulation relative to control ([6]; 0.1 µM)
1 | O=c1c2ccccc2c(=O)c2c1sc1c(=O)c3ccccc3c(=O)c12 [SQ1, seriniquinone] | increase of typical apoptotic markers | increase of typical apoptotic markers | extinction of p62 | significantly reducing the number of viable cells | significantly reducing the number of viable cells | twofold | twofold | 20 times | lack of solubility | poor water-solubility | greater than 50% | 50% | – | – | –
2 | CC(C)(O)C(O)CCc1ccc2c(=O)c3sc4c(=O)c5ccccc5c(=O)c4c3c(=O)c2c1 (stereo not drawn) [SQ2] | increase of typical apoptotic markers | increase of typical apoptotic markers | – | significantly reducing the number of viable cells | significantly reducing the number of viable cells | – | – | – | improved solubility | – | – | 50% | significantly higher | eight | three
